Experimental data published in patent US7575882B2, “Compositions and methods for identifying modulators of TRPV2” (Janssen Pharmaceutica N. V., priority 2005, dated 2009).

Assays:
Assay type in all cases: cell-based
[1] = system: deletion mutants of rat TRPV2; experiment: Calcium mobilization in HEK293 cells expressing rat TRPV2 deletion mutants; conditions: mutants lacking N-terminal 20, 32/33, 65/66 or C-terminal 11, 23, 32 residues
Text: DNA molecules encoding the deletion mutants were amplified by PCR using the rat TRPV2 cDNA as the template. For amino-terminal deletions, a series N-terminal forward primers encoding an initiating methionine in frame with sequences matching adjacent regions of the desired start at residues G21 (mutant N20, SEQ ID NO:11), P33 (N32, SEQ ID NO:12), A66 (N65, SEQ ID NO:13) and V84 (N83, SEQ ID NO:14) paired with a C-terminal reverse primer were used for PCR amplification. While for carboxyl-terminal deletions, a forward N-terminal primer paired with a series C-terminal reverse primers ending at residues R706 (C51, SEQ ID NO:7), P729 (C32, SEQ ID NO:8), P738 (C23, SEQ ID NO:9) and E750 (C11, SEQ ID NO:10) with an in-frame stop codon at the terminal end of the open reading frame were used for amplification. After PCR amplification and purification, the DNA molecules encoding the deletion mutants were subcloned into the pCI-neo mammalian expression vector and the constructs were confirmed by DNA sequencing. […]
The deletion mutant constructs were then transfected into HEK293 cells using Fugene 6 reagent (Roche) as per the manufacturer's instructions. […] Calcium mobilization was triggered using Δ^9-THC or 2-APB or elevated temperature buffer and measured using either FLIPR or FLEX STATION instruments.

[2] = target: T1, human TRPV1 (Homo sapiens, UniProt Q8NER1); experiment: FLIPR assay in HEK293 cells expressing human TRPV1; conditions: Δ^9-THC 240 μM, cannabinol 600 μM, others 120 μM
T1 construct: expressed in transfected cells; host or cells: HEK293
Experimental: A selected number of cannabinoids were also tested against HEK293 cells expressing human TRPV1 and canine TRPM8 in the FLIRP assay.

[3] = target: T2, rat and human TRPV2 chimera RHR (Rattus norvegicus, UniProt Q9WUD2, A398L/D418K/D570G/D595E/E431N/E493A/E569T/E577V/E585D/F395L/F429V/I422A/INS586GN/K566E/L151P/L436T/L450V/L461V/L478F/L485V/L503S/M468I/M492L/N571P/P420Q/P587G/P589Q/Q419K/R460H/R490C/R560Q/R563W/R617H/S416T/S424H/S425L/S504A/S564R/S573A/S592G/T428E/T494I/T576S/T580M/V402I/V409A/V543I/V575E/V581E/V621M/V635I/Y400N); experiment: Calcium mobilization in HEK293 cells expressing TRPV2 chimera RHR; conditions: transient expression in HEK293
T2 construct: expressed in transfected cells; host or cells: HEK293, transient, pCI-neo
Experimental: The deletion mutant constructs were then transfected into HEK293 cells using Fugene 6 reagent (Roche) as per the manufacturer's instructions. At 24 hours post-transfection, the cells were harvested and replated in fresh DMEM medium supplemented with 10% fetal bovine serum, 100 units/ml penicillin, and 100 μg/ml streptomycin. The cells were distributed onto poly-D-Lysine coated 96-or 384-well plates at a density of approximately 40,000 and 10,000 cells per well, respectively. At approximately 48 hours post-transfection, the medium was removed from the assay plate and replaced with Calcium 3 Dye Buffer (Molecular Devices) using the protocol available from the manufacturer. Calcium mobilization was triggered using Δ^9-THC or 2-APB or elevated temperature buffer and measured using either FLIPR or FLEX STATION instruments.
Based on the predicted topology and primary sequence features of TRPV2, TRPV2 are divided into 3 major domains: 1) the amino-terminal intracellular domain; 2) the transmembrane domain; and 3) the carboxyl-terminal intracellular domain. For a chimera, each domain can be of rat (R) or human (H) origin. Three rat and human TRPV2 chimera were constructed and tested herein. RRH (SEQ ID NO:15) was a chimera comprising rat 1-392 aa, rat 393-646 aa, and human 647-764 aa. RHR (SEQ ID NO:16) was a chimera comprising rat 1-392, human 391-646, and rat 647-761. HRR (SEQ ID NO:17) was a chimera comprising human 1-390, rat 393-646, and rat 647-761.
DNA molecules encoding the three rat and human TRPV2 chimeras were obtained by fusion PCR. First, DNA molecules encoding the desired TRPV2 domains were amplified by PCR using the rat or human TRPV2 cDNA as the template with synthetic primer DNA containing in-frame sequence that overlapped with the other species domain to be linked. After PCR amplification and purification, DNA molecules encoding the desired TRPV2 domains from human and rat were combined and used as templates for fusion PCR with primer DNA matching the 5′ and 3′ end sequences of the coding sequence for the full length TRPV2 chimera. […]

[4] = system: untransfected HEK293 cells; experiment: Whole-cell patch clamp, untransfected HEK293 cells (control); conditions: 100 μM; data not shown
Experimental: To further confirm the Δ^9-THC effect on TRPV2, whole-cell patch clamp studies were performed. The extracellular solution contained (in mM): NaCl, 132; CaCl, 1.8; KCl, 5.4; MgCl2, 0.8; HEPES, 10; glucose, 10; pH=7.4. The intracellular solution used to fill recording pipettes contained (in mM): CsCl, 145; EGTA, 5; HEPES, 10; glucose, 5; pH=7.4. Recordings were performed using the conventional whole-cell patch clamp technique, 2-3 days after transient transfection of human TRPV2 into HEK293 cell or 1-2 days after plating HEK293 cells stably expressing rat TRPV2 onto glass coverslips. Currents were amplified by a patch clamp amplifier and filtered at 2 kHz (Axopatch 200B), sampled at 10 kHz using Digidata 1322A and acquired and analyzed with pClamp 9.0 (all instruments from Molecular Devices, CA). A 600 ms voltage ramp was given once every five seconds from −100 mV to +60 mV. The holding potential between voltage ramps was −100 mV. Extracellular solutions were applied to the cell at 0.5 ml/min via a gravity-fed perfusion system. All experiments were performed at 22° C.

Substance: Delta-9-tetrahydrocannabinol [Δ^9-THC]
- response of rat TRPV2 deletion mutants to the compound [1]: still active
- activation of TRPV1 [2]: no significant activation
- response of chimera RHR to the compound [3]: fully responsive
- response of chimera RHR to the compound ([3]; listed as Δ9-THC): active
- current above control level in untransfected HEK293 cells [4]: no current above control level
